Patent publication US20260001888A1, “PYRAZOLOPYRIMIDINE PDE9 INHIBITORS” (Merck Sharp & Dohme LLC, priority 2018, published 2026)

biological target: Human PDE9 (PDE9A2) (Homo sapiens (Human), UniProt O76083); test: PDE9 IMAP fluorescence polarization (FP) inhibition assay; type: biochemical; settings: apparent inhibition constant; human PDE9A2, FAM-cGMP substrate 50 nM, room temperature
Experimental: The activity of the compounds in accordance with the present invention as PDE9 inhibitors may be readily determined without undue experimentation using a fluorescence polarization (FP) methodology that is well known in the art (Huang, W., et al., J. Biomol Screen, 2002, 7:215).
In a typical experiment the PDE9 inhibitory activity of the compounds of the present invention was determined in accordance with the following experimental method.
Human PDE9 (PDE9A2, GenBank Accession No. NM_001001567), full length with N-terminal GST tag, was purchased from BPS Bioscience. The fluorescence polarization assay for cyclic nucleotide phosphodiesterases was performed using an IMAP® FP kit supplied by Molecular Devices, Sunnyvale, CA (product #R8139). IMAP® technology has been applied previously to phosphodiesterase assays (Huang, W., et al., J. Biomol Screen, 2002, 7:215). Assays were performed at room temperature in 384-well microtiter plates with an incubation volume of 20.2 μL. Solutions of test compounds were prepared in DMSO and serially diluted with DMSO to yield 8 μL of each of 10 solutions differing by 3-fold in concentration, at 32 serial dilutions per plate. 100% inhibition is determined using a known PDE9 inhibitor, such as 1-(2-chlorophenyl)-6-[(2R)-3,3,3-trifluoro-2-methylpropyl]-1,5-dihydro-4H-pyrazolo[3,4-d]pyrimidine-4-one (BAY 73-6691) (Wunder et al, Mol. Pharmacol., 2005, 68 (6): 1775-81), (6-[(3S,4S)-4-methyl-1-(pyrimidin-2-ylmethyl) pyrrolidin-3-yl]-1-(tetrahydro-2H-pyran-4-yl)-1,5-dihydro-4H-pyrazolo[3,4-d]pyrimidin-4-one (PF-04447943) (Wager et al., ACS Chemical Neuroscience, 2010, 1:435-449). 0% of inhibition is determined by using DMSO (1% final concentrations). A Labcyte Echo 555 (Labcyte, Sunnyvale, CA) is used to dispense 200 nL from each well of the titration plate to the 384 well assay plate. Human PDE9A2 membrane preps were diluted to 1 ng/ml. […] PDE9 enzyme mix and compounds were mixed and incubated at room temperature for 30 min. Following which, FAMcGMP substrate was added, shaken and incubated for an additional 60 min at room temperature. The final concentration of human PDE9 membrane preparations were 0.5 ng/ml. The final concentration of FAM-cGMP was 50 nM. After the incubation period, the enzymatic reaction was stopped by addition of binding solution (IMAP-FP, Molecular Devices, comprised of 80% Solution A, 20% Solution B and a 1:600 dilution of binding reagent) to each well. The plates were shaken then incubated at room temperature for 1 h prior to determining the fluorescence polarization (mP) using a Perkin Elmer En Vision™ plate reader (Waltham, MA).
Fluorescence polarization (mP) was calculated from the parallel(S) and perpendicular (P) fluorescence of each sample well and the analogous values for the median control well, containing only substrate (So and Po), using the following equation: […]
Dose-inhibition profiles for each compound were characterized by fitting the mP data to a four-parameter equation given below. The apparent inhibition constant (KI), the maximum inhibition at the low plateau relative to “100% Inhibition Control” (Imax; e.g. 1=>same as this control), the minimum inhibition at the high plateau relative to the “0% Inhibition Control” (Imin, e.g. 0=>same as the no drug control) and the Hill slope (nH) are determined by a non-linear least squares fitting of the mP values as a function of dose of the compound using an in-house software based on the procedures described by Mosser et al., JALA, 2003, 8:54-63, using the following equation: […]
An apparent (Km) for FAM-labeled […] of 150 nM was determined in separate experiments through simultaneous variation of substrate and selected drug concentrations.

Chain of Human PDE9 (PDE9A2) (O76083 other isoform, or with tags, fused parts or gaps): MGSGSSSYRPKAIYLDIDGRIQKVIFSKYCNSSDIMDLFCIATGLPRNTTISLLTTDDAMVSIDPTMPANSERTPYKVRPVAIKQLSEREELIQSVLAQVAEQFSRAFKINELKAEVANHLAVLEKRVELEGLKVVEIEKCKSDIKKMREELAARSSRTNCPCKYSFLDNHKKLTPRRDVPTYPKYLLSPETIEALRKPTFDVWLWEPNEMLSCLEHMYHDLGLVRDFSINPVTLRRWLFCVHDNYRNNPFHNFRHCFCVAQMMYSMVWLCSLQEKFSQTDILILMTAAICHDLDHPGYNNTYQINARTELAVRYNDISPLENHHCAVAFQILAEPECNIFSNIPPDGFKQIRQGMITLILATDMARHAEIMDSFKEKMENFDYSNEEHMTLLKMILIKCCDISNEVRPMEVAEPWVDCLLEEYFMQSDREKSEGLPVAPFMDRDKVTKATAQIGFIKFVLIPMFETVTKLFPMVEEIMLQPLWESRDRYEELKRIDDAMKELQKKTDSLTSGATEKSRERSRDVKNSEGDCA

Structure (SMILES)	Ki
CCC(c1ncc(F)cn1)N(C)c1nc2c(c(C#N)nn2C(C)c2ccc(C3CC3)cc2)c(=O)[nH]1 (single isomer, unassigned) [Example 70, 1-[1-(4-cyclopropylphenyl)ethyl]-6-[1-(5-fluoropyrimidin-2-yl)propyl-methyl-amino]-4-oxo-5H-pyrazolo[3,4-d]pyrimidine-3-carbonitrile]	0.02 nM
CCC(c1ncccn1)N(C)c1nc2c(c(C#N)nn2C(C)c2ccc(C3CC3)nc2)c(=O)[nH]1 (single isomer, unassigned) [Example 2, 1-(1-(6-Cyclopropylpyridin-3-yl)ethyl)-6-(methyl(1-(pyrimidin-2-yl)propyl)amino)-4-oxo-4,5-dihydro-1H-pyrazolo[3,4-d]pyrimidine-3-carbonitrile]	5.24 nM
CC(c1ccc(C(F)(F)F)nc1)n1nc(C#N)c2c(=O)[nH]c(CCc3ncccn3)nc21 (single isomer, unassigned) [Example 80, 4-oxo-6-(2-(pyrimidin-2-yl)ethyl)-1-(1-(6-(trifluoromethyl)pyridin-3-yl)ethyl)-4,5-dihydro-1H-pyrazolo[3,4-d]pyrimidine-3-carbonitrile]	120 nM
CCC(c1ncc(F)cn1)N(C)c1nc2c(c(C#N)nn2C(C)c2ccc(C3CC3)nc2)c(=O)[nH]1 (single isomer, unassigned) [Example 65, 1-[1-(6-cyclopropyl-3-pyridyl)ethyl]-6-[1-(5-fluoropyrimidin-2-yl)propyl-methyl-amino]-4-oxo-5H-pyrazolo[3,4-d]pyrimidine-3-carbonitrile]	0.03 nM
CCC(Nc1nc2c(c(C#N)nn2C(C)c2ccc(C(F)(F)F)nc2)c(=O)[nH]1)c1ncccn1 (single isomer, unassigned) [Example 72, 4-Oxo-6-((1-(pyrimidin-2-yl)propyl)amino)-1-(1-(6-(trifluoromethyl)pyridin-3-yl)ethyl)-4,5-dihydro-1H-pyrazolo[3,4-d]pyrimidine-3-carbonitrile]	21.9 nM
CCC(Cc1nc2c(c(C#N)nn2C(C)c2ccc(C(F)(F)F)nc2)c(=O)[nH]1)c1ncccn1 (single isomer, unassigned) [Example 88, 4-oxo-6-(2-(pyrimidin-2-yl)butyl)-1-(1-(6-(trifluoromethyl)pyridin-3-yl)ethyl)-4,5-dihydro-1H-pyrazolo[3,4-d]pyrimidine-3-carbonitrile]	108 nM
CC(c1ccc(C(F)(F)F)nc1)n1nc(C#N)c2c(=O)[nH]c(N3CCC3c3ccc(F)cc3)nc21 (single isomer, unassigned) [Example 51, 6-[2-(4-fluorophenyl)azetidin-1-yl]-4-oxo-1-[1-[6-(trifluoromethyl)-3-pyridyl]ethyl]-5H-pyrazolo[3,4-d]pyrimidine-3-carbonitrile]	7.41 nM
CCC(Cc1nc2c(c(C#N)nn2C(C)c2ccc(C(F)(F)F)nc2)c(=O)[nH]1)c1ncccn1 (single isomer, unassigned) [Example 90, 4-oxo-6-(2-(pyrimidin-2-yl)butyl)-1-(1-(6-(trifluoromethyl)pyridin-3-yl)ethyl)-4,5-dihydro-1H-pyrazolo[3,4-d]pyrimidine-3-carbonitrile]	28 nM

Continued by falling Ki, values first:

Ki	Structure (SMILES)
93.4 nM	CCC(Cc1nc2c(c(C#N)nn2C(C)c2ccc(C(F)(F)F)nc2)c(=O)[nH]1)c1ncccn1 (single isomer, unassigned) [Example 87, 4-oxo-6-(2-(pyrimidin-2-yl)butyl)-1-(1-(6-(trifluoromethyl)pyridin-3-yl)ethyl)-4,5-dihydro-1H-pyrazolo[3,4-d]pyrimidine-3-carbonitrile]
34.2 nM	CCC(c1ncc(F)cn1)N(C)c1nc2c(c(C#N)nn2C(C)c2ccc(C(F)(F)F)nc2)c(=O)[nH]1 (single isomer, unassigned) [Example 78, 6-((1-(5-fluoropyrimidin-2-yl)propyl)(methyl)amino)-4-oxo-1-(1-(6-(trifluoromethyl)pyridin-3-yl)ethyl)-4,5-dihydro-1H-pyrazolo[3,4-d]pyrimidine-3-carbonitrile]
24.5 nM	CCC(c1ncccn1)N(C)c1nc2c(c(C#N)nn2C(C)c2ccc(C(F)(F)F)nc2)c(=O)[nH]1 (single isomer, unassigned) [Example 11, 6-[methyl(1-pyrimidin-2-ylpropyl)amino]-4-oxo-1-[1-[6-(trifluoromethyl)-3-pyridyl]ethyl]-5H-pyrazolo[3,4-d]pyrimidine-3-carbonitrile]
20.8 nM	CC(c1ncccn1)N(C)c1nc2c(c(C#N)nn2C(C)c2ccc(C(F)(F)F)nc2)c(=O)[nH]1 (single isomer, unassigned) [Example 7, 6-[methyl(1-pyrimidin-2-ylethyl)amino]-4-oxo-1-[1-[6-(trifluoromethyl)-3-pyridyl]ethyl]-5H-pyrazolo[3,4-d]pyrimidine-3-carbonitrile]
16.4 nM	CC(c1ccc(C(F)(F)F)nc1)n1nc(C#N)c2c(=O)[nH]c(N(C)C(c3ncccn3)C3CCC3)nc21 (single isomer, unassigned) [Example 30, 6-[[cyclobutyl(pyrimidin-2-yl)methyl]-methyl-amino]-4-oxo-1-[1-[6-(trifluoromethyl)-3-pyridyl]ethyl]-5H-pyrazolo[3,4-a]pyrimidine-3-carbonitrile]
14.9 nM	CCC(c1ncc(F)cn1)N(C)c1nc2c(c(C#N)nn2C(C)c2ccc(C3CC3)cc2)c(=O)[nH]1 (single isomer, unassigned) [Example 69, 1-[1-(4-cyclopropylphenyl)ethyl]-6-[1-(5-fluoropyrimidin-2-yl)propyl-methyl-amino]-4-oxo-5H-pyrazolo[3,4-d]pyrimidine-3-carbonitrile]
6.7 nM	CC(c1ccc(C(F)(F)F)nc1)n1nc(C#N)c2c(=O)[nH]c(N3CCC3c3ccc(F)cc3)nc21 (single isomer, unassigned) [Example 52, 6-[2-(4-fluorophenyl)azetidin-1-yl]-4-oxo-1-[1-[6-(trifluoromethyl)-3-pyridyl]ethyl]-5H-pyrazolo[3,4-d]pyrimidine-3-carbonitrile]
6.67 nM	CC(c1ccc(C(F)(F)F)nc1)n1nc(C#N)c2c(=O)[nH]c(N(C)C(c3ncccn3)C3CC3)nc21 (single isomer, unassigned) [Example 27, 6-[[cyclopropyl(pyrimidin-2-yl)methyl]-methyl-amino]-4-oxo-1-[1-[6-(trifluoromethyl)-3-pyridyl]ethyl]-5H-pyrazolo[3,4-d]pyrimidine-3-carbonitrile]
0.14 nM	CCC(c1ncccn1)N(C)c1nc2c(c(C#N)nn2C(C)c2ccc(C(F)(F)F)nc2)c(=O)[nH]1 (single isomer, unassigned) [Example 9, 6-[methyl(1-pyrimidin-2-ylpropyl)amino]-4-oxo-1-[1-[6-(trifluoromethyl)-3-pyridyl]ethyl]-5H-pyrazolo[3,4-d]pyrimidine-3-carbonitrile]
0.01 nM	CCC(c1ncccn1)N(C)c1nc2c(c(C#N)nn2C(C)c2ccc(C(F)(F)F)cc2)c(=O)[nH]1 (single isomer, unassigned) [Example 14, 6-[methyl(1-pyrimidin-2-ylpropyl)amino]-4-oxo-1-[1-[4-(trifluoromethyl)phenyl]ethyl]-5H-pyrazolo[3,4-d]pyrimidine-3-carbonitrile]
